Experimental data taken from article PMC9965539, “Adverse Toxic Effects of Tyrosine Kinase Inhibitors on Non-Target Zebrafish Liver (ZFL) Cells” (International Journal of Molecular Sciences, 2023).

Tests used:
Huh-7 cells = conditions: 24 h; cited from earlier work
[1] = test system: zebrafish liver cells (ZFL); assay: Cell cycle analysis with flow cytometry; assay type: cell-based; conditions: 72 h; for effect on cell cycle progression: concentration-dependent, parallel decrease in S-phase fraction
Protocol: ZFL cells were seeded onto T25 culture plates at a density of 450,000 cells for 24 h. […] The positive control was etoposide (0.17 μM), which is known to arrest cells in the G2/M phase of the cell cycle. After 72 h, cells were trypsinized (0.25% trypsin-EDTA) and washed with 1x PBS before fixation in 4% paraformaldehyde (PFA). For flow cytometric analysis, fixed cells were washed in cold 1x PBS and stained with Hoechst 33258 dye (diluted in 0.1% Triton X-100 1:500) as described by Stampar et al.. Flow cytometric measurements were performed using a MACSQuant Analyzer 10 and the experiment was repeated three times independently. Each time, 20,000 single cells were recorded per experimental point. The data obtained were analyzed using FlowJo V10 software (Becton Dickinson, Franklin Lakes, NJ, USA). Statistical analysis for cell cycle was performed by the two-way ANOVA with Fisher’s LSD test using GraphPad Prism V6 (GraphPad Software, La Jolla, CA, USA). * p < 0.05, ** (p < 0.01), *** (p < 0.001) were considered statistically significant.

H520 and H1975 cells = test system: H520 and H1975 cells; design: method as in PMID 24447935; conditions: highest concentration tested; cited from earlier work
[2] = test system: zebrafish liver cells (ZFL); assay: Micronucleus detection by flow cytometry; assay type: cell-based; conditions: 72 h; for MNi frequency: non-cytotoxic concentrations
Protocol: ZFL cells were seeded onto 24-well culture plates (Nunclon) at a density of 35,000 cells per well for 24 h. […] Etoposide (0.17 μM and 0.68 μM) was used as a positive control. After 72 h, cells were placed on ice for 20 min, and subsequently a 0.05 mg/mL EMA solution was added to each well. The cells were placed on ice for 30 min and exposed to light for photoactivation of the EMA fluorochrome. Afterwards, cells were washed and resuspended in lysis solution (0.584 mg/mL NaCl, 1 mg/mL sodium citrate, and 0.3 μL/mL Triton X-100) containing 0.2 μM SYTOX Green and 0.25 mg/mL RNAse A, and incubated for 1 h in the dark at 37 °C. After incubation, lysis solution (85.6 mg/mL sucrose and 15 mg/mL citric acid) containing 0.2 μM SYTOX Green was added to the wells of the plate and incubated for a further 30 min at room temperature in the dark. Cells were analyzed on the same day using MACSQuant Analyzer 10 flow cytometer. MASCQuantify Software 2.11. was used to analyze each sample, and the percentage of micronuclei was determined after the acquisition of a total of 20,000 gated nuclei events, excluding EMA-positive events. One-way ANOVA with post hoc multiple comparison Dunett’s test using GraphPad Prism V6 (GraphPad Software, Carlsbad, CA, USA) was carried out. * p < 0.05 and *** p < 0.0001 were considered statistically significant.

[3] = test system: zebrafish liver cells (ZFL); assay: Propidium iodide live/dead staining by flow cytometry; assay type: cell-based; conditions: for percentage of PI negative cells: 72 h exposure, low concentrations
Protocol: Benzo[a]pyrene (50 μM), an indirect-acting genotoxic agent which requires metabolic activation for its genotoxic effects, and etoposide (0.17 μM), a direct-acting genotoxic agent, were selected as positive controls. After 72 h, floating and adherent cells were collected, resuspended in ice-cold 1x PBS, and immediately analyzed. Propidium iodide (PI) at a final concentration of 1 μg/mL was added to the cells 5 min before the start of measurements using the MACSQuant Analyzer 10 flow cytometer (Miltenyi Biotech, Bergisch Gladbach, Germany). MASCQuantifiy software (Miltenyi Biotech, Bergisch Gladbach, Germany) was used to quantify PI negative and positive cells. The experiments were repeated three times independently. Statistical significance between the treated groups and control was determined by one-way ANOVA with post hoc multiple comparison Dunett’s test using GraphPad Prism V6 (GraphPad Software, La Jolla, CA, USA). * p < 0.05 was considered statistically significant.

[4] = test system: human ovarian cancer cells (SKOV-3 cells); design: method as in Mak et al. 66; conditions: 10 µM, 72 h; ref Mak et al. 66; cited from earlier work
[5] = test system: ovarian carcinoma A2780 cells; design: method as in PMID 28223694; conditions: up to 10 μM, 24 h; cited from earlier work
HepG2 cells = conditions: 24 h of exposure; cited from earlier work
[6] = test system: human lymphocytes or Chinese hamster ovary cells in vitro and rat bone marrow; conditions: ref 11 (REG), 69 (ERL), 59 (NIL); cited from earlier work
A549 cells = test system: A549 cells; design: method as in Kryeziu et al. 65; conditions: 20 µM, 6 h exposure; ref Kryeziu et al. 65; cited from earlier work
[7] = test system: zebrafish liver cells (ZFL); assay: MTS assay, viability of ZFL cells; assay type: cell-based; conditions: for viability of the ZFL cells: 24, 48, 72 h, dose- and time-dependent, ERL and NIL up to their maximum solubility; for cytotoxic effects in ZFL cells (MTS): concentrations up to 60 µM, up to 72 h exposure
Protocol: (§1) The viability of ZFL cells after 24, 48, and 72 h of exposure to TKIs was determined using the tetrazolium-based (MTS) assay (Cell Titer 96 AQueous Non-Radioactive Cell Proliferation Assay; Promega, Madison, WI, USA) as previously described by Novak et al.. Cells were seeded in 96-well microtiter plates (Corning Costar Corporation, New York, NY, USA) at a density of 7000 cells/well. […] Three independent experiments were performed, each with five replicates per treatment point. The statistical significance between the treated groups and the solvent control was determined by Student’s t-test using GraphPad Prism V6 (GraphPad Software, La Jolla, CA, USA). *** (p < 0.001)was considered statistically significant.

HepG2 and HepaRG cells = test system: HepG2 and HepaRG cells; design: method as in PMID 28659801; conditions: 20 µM highest concentration tested; cited from earlier work
Alium cepa = test system: Alium cepa; design: method as in doi:10.1508/cytologia.86.195; conditions: dose-dependent; cited from earlier work
[8] = test system: zebrafish liver cells (ZFL); assay: Alkaline comet assay (DNA strand breaks); assay type: cell-based; conditions: 24 h of exposure, non-cytotoxic concentrations
Protocol: The induction of DNA strand breaks after TKI exposure was assessed by the comet assay according to Møller et al., with minor modifications. Briefly, ZFL cells were seeded at a density of 100,000 cells/well onto 12-well cell culture plates (Corning Costar Corporation, New York, NY, USA) and incubated for 24 h to attach. […] B(a)P (50 μM) was used as a positive control. After treatment, ZFL cells were trypsinized, collected, and centrifuged. Thirty μL of the cell suspension was mixed with 70 μL of 1% LMP agarose and placed on fully frosted slides pre-coated with 80 μL of 1% NMP agarose. Cells were then lysed for 1 h at 4 °C (2.5 M NaCl, 100 mM EDTA, 10 mM Tris, 1% Triton X-100, pH 10). DNA was subsequently denatured in electrophoresis buffer (1 mM EDTA, 300 mM NaOH, pH 13) for 20 min at 4 °C and slides were electrophoresed at 25 V (at 1 V/cm) for 20 min. Finally, nuclei were stained with GelRed (Biotium, Fremont, CA, USA). Images of 50 randomly selected nuclei per experimental point were acquired with the Eclipse 800 fluorescence microscope (Nikon, Tokyo, Japan) at 400× magnification using image analysis software (Comet Assay IV, Instem, UK). The statistical significance between control and treated groups was determined by one-way analysis of variance (ANOVA, Kruskal–Wallis) and Dunn’s multiple comparison test. * p < 0.05 was considered statistically significant.

H295R cells = test system: H295R cells; design: method as in Silveira et al. 28; conditions: 10 µM; ref Silveira et al. 28; cited from earlier work
[9] = test system: human lymphoblastoid TK6 cells; design: method as in PMID 25111698; conditions: up to 4.4 μM, 24 h, without and with metabolic activation; cited from earlier work
[10] = MTS assay, viability of ZFL cells; assay type: cell-based, zebrafish; conditions: zebrafish, ZFL cells (zebrafish liver cell line), ZFL cells, read-out: IC50 for TKIs Cytotoxicity (95% Confidence Interval)
Protocol: as §1

[11] = test system: certain target cancer cells; design: method as in ref 56, 57 (DAS), 58, 59 (REG); conditions: in vitro; 57 (DAS), 58, 59 (REG); cited from earlier work

| Compound | concentration that induced G0/G1 cell cycle arrest with decrease in number of cells in S phase [1] | effect on cell cycle progression [1] | MNi frequency [2] | percentage of PI negative cells [3] | mutagenicity/genotoxicity (chromosomal damage/genomic instability) [6] | viability of the ZFL cells [7] | cytotoxic effects in ZFL cells (MTS) [7] | concentration with statistically significant increase in percentage of tail DNA [8] | other results |
| --- | --- | --- | --- | --- | --- | --- | --- | --- | --- |
| C#Cc1cccc(Nc2ncnc3cc(OCCOC)c(OCCOC)cc23)c1 [ERL, erlotinib] | 40 µM | arrest of the cell cycle in the G0/G1 phase | did not significantly increase | did not significantly decrease | not mutagenic/genotoxic | did not affect cell viability | no cytotoxic effect | – | concentration with cell cycle arrest (Huh-7 cells): 25 µM; reduction in viability (H520 and H1975 cells): 20%; percentage of tail DNA [4]: increases the percentage of tail DNA; MNi formation [5]: did not induce MNi formation; concentration inducing apoptosis (HepG2 cells): 25 µM; concentration inducing cell cycle arrest (HepG2 cells): 10 µM; DNA damage (alkaline comet assay) (A549 cells): did not induce DNA damage; cytotoxicity (HepG2 and HepaRG cells): only slight cytotoxicity; mitotic index and cytological aberrations (Alium cepa): decreased the mitotic index and increased cytological aberrations |
| Cc1cn(-c2cc(NC(=O)c3ccc(C)c(Nc4nccc(-c5cccnc5)n4)c3)cc(C(F)(F)F)c2)cn1 [NIL, nilotinib] | – | – | did not significantly increase | – | – | did not affect cell viability | no cytotoxic effects | ≥ 2000 nM | decrease of survival (H295R cells): 62.9%; decrease of the percentage of PI negative cells ([3]; highest concentration tested, 72 h): approximately 20% |
| CNC(=O)c1cc(Oc2ccc(NC(=O)Nc3ccc(Cl)c(C(F)(F)F)c3)c(F)c2)ccn1 [REG, regorafenib] | 3 µM | arrest of the cell cycle in the G0/G1 phase | did not significantly increase | did not significantly decrease | not mutagenic/genotoxic | reduced | – | ≥ 800 nM | MNi formation [9]: did not induce MNi formation; IC50 at 24 h ([10]; 24 h exposure): 5.64 µM; IC50 at 48 h ([10]; 48 h exposure): 4.54 µM; IC50 at 72 h ([10]; 72 h exposure): 3.59 µM; DNA damage assessed by comet assay [11]: induce DNA damage |
| COc1cc([C@@H]2c3cc4c(cc3[C@@H](O[C@@H]3O[C@@H]5CO[C@@H](C)O[C@H]5[C@H](O)[C@H]3O)[C@H]3COC(=O)[C@H]23)OCO4)cc(OC)c1O [etoposide, Etoposide] | – | – | – | – | – | – | – | – | MNi in representative dot plot ([2]; 0.17 μM): increased amount of MNi |
